Assays:
KKAy mice [1] = assay: Rearing experiment of KKAy mice: blood-glucose level; type: in vivo; details: Experiment 5, FIG. 11; 0.035 mass % in AIN-93G feed; pair feeding; day 28
Method: (§1) KKAy mice at 3 weeks of age were purchased from CLEA Japan, Inc. as diabetes onset mode mice, and experimentally reared after preliminary rearing for 7 days. Herein, the conditions of rearing the mice were as follows. […]
(§2) AIN-93G was used for base experimental feed. […]
(§3) Note, the Yuzu seed extract used in Experiment 1 was prepared by heat-drying the Yuzu seeds at 100° C. for 720 min, subsequently grinding the dried Yuzu seeds so that the particle size (i.e., diameter) became about 1 mm or less, and performing extraction at an ambient temperature for 10 min using 10-fold volume of 100% ethanol to the ground Yuzu seeds.
In each of a control group (i.e., administered with AIN-93G alone including no other materials), a Yuzu seed extract (1% mass %) added group, a pioglitazone (0.03 mass %) added group, 10 mice were preliminarily reared for 7 days, and subsequently reared with the experimental feed totally for 28 days.
After initiating the rearing experiment, blood was collected through a tail vain at the time from 9 am to 11 am at a day after the predetermined days passed. Then, the collected blood was analyzed by blood-glucose analyzers (HORIBA, Ltd. Antsence III and Bayer DCA2000) to measure a blood-glucose level and an HbA1c level. The measured blood-glucose and HbA1c levels were processed to calculate the mean value of each group. […]

KKAy mice [2] = assay: Rearing experiment of KKAy mice: HbA1c level; type: in vivo; details: Experiment 5, FIG. 12; 0.035 mass % in AIN-93G feed; pair feeding
Method: as §1, §2
as §3, with “seeds. […]” for “seeds.”
After initiating the rearing experiment, blood was collected through a tail vain at the time from 9 am to 11 am at a day after the predetermined days passed. Then, the collected blood was analyzed by blood-glucose analyzers (HORIBA, Ltd. Antsence III and Bayer DCA2000) to measure a blood-glucose level and an HbA1c level. The measured blood-glucose and HbA1c levels were processed to calculate the mean value of each group.
Note, all the HbA1c levels thus measured and calculated in the experiment are represented by the JDS values. […]

With CC1(C)OC(=O)C=C[C@]2(C)[C@H]3CC[C@@]4(C)[C@H](c5ccoc5)OC(=O)[C@H]5O[C@]54[C@]3(C)C(=O)C[C@@H]12 [obacunone, Obacunone] the “blood-glucose level lower than that of the control group (difference)” value (KKAy mice [1]) was “about 50 mg/dl” and the “HbA1c levels compared to control group” value (KKAy mice [2]) was “lower than those of the control group”.

Source: patent US11253567B2, “Citrus seed extract-containing composition, food, drug, and method for producing citrus seed extract-containing composition” (Kikkoman Corporation, priority 2014, dated 2022)
